According to patent publication US20100210535A1, “[…] USE OF NE[…] AND ACTH 7-38 AND COMPOSITIONS THEREOF” (priority 2007, published 2010):
Where no end group is shown, it is not given here.

Experiments:
[1] = system: HCMV strain AD169; experiment: HCMV plaque formation assay in MRC-5 cells; assay type: cell-based; conditions: 10 micrograms per ml, 7-10 days
Source text: Ganciclovir was used as positive control.

[2] = system: hepatitis B virus (HBV) ayw strain; experiment: HBV experimental assay system, HepG2-2.2.15, secreted HBV DNA by TaqMan PCR; assay type: cell-based; conditions: 10 micrograms per ml, HepG2-2.2.15 cells, six days
[3] = system: Primary Human endothelial cells (HUVEC); experiment: Endothelial cell migration assay; assay type: cell-based; conditions: 10 micrograms per ml, 22 hours, combination peptide 1:peptide 2 0.95 mole:1.05 mole
Experimental: Thereafter, designated concentration of testing peptides—10 micrograms per ml—was added in duplicate wells.

[4] = system: spleen cells; experiment: Th1/Th2 cytokine profiling assay (Ovalbumin-restimulated spleen cells, CBA kit); assay type: cell-based, Balb/c mice; conditions: 10 micrograms per ml; Ovalbumin restimulation; 72 hours
Source text: The Balb/c mice (originated in 1923, it is a popular strain and is used in many different research disciplines. Also classified as an inbred from the production of 20 or more successive brother-sister matings, the Balb/c mouse is albino and small in size) were immunized on Days 1, 15, and 29 with Ovalbumin (Ovalbumin is the main protein found in egg white, commonly used to stimulate an immunological reaction in test animals) in PBS (5 micrograms/injection). On day 50, spleens of the mice were harvested (3 weeks after last boost with Ovalbumin). Cells were cultured (2×10^5/well in triplicate) and incubated with culture medium or test peptides—10 micrograms per ml—for 30 min. Thereafter, additional Ovalbumin was added to the cells at 10 micrograms/ml for in vitro restimulation of the cells. 72 hours later, cell supernatants were harvested and assayed using the Becton Dickinson Mouse Th1/Th2 Cytokine CBA Kit.

[5] = system: HUVEC; experiment: Endothelial tube formation assay; assay type: cell-based, human; conditions: 10 micrograms per ml, 20 hours, combination peptide 1:peptide 2 1.10 mole:0.90 mole
Experimental: The endothelial tube formation assay is based on the ability of endothelial cells to form three-dimensional capillary-like tubular structures when cultured on a gel of basement membrane extract. The endothelial tube formation assay represents a powerful model for studying inhibition and induction of angiogenesis. Pre-labeled HUVEC with Calcein AM were seeded in a 96-well culture plate coated with extracellular metrix (Chemicon international Cat. ECM625) and treated with test peptides—10 micrograms per ml—in full growth medium. Positive control was vehicle only. The endothelial cells were allowed to form tubes foe 20 hours and were then examined under an inverted fluorescent microscope. Duplicate wells for each treatment were photographed and quantitatively analyzed for an average tubule length using image analysis software ImageProPlus. Raw data were expressed as average tubule lengths in pixels±standard deviation. Statistic p values were computed using the Student's t-test.

| Substance | inhibition of HCMV plaque formation as compared to the virus control experiment [1] | inhibition of HBV replication as compared to the virus control infection [2] | inhibition of the migration of human endothelial cells [3] [%] | IFNγ spleen cells; TH1 response (% of control) [4] | IL-2 spleen cells (% of control) [4] | IL-4 spleen cells; TH2 response (% of control) [4] | IL-5 spleen cells; TH2 response (% of control) [4] | TNF-a spleen cells; TH1 response (% of control) [4] | inhibition of the tube formation of human endothelial cells [5] |
| --- | --- | --- | --- | --- | --- | --- | --- | --- | --- |
| Glu-Ile-Gly-Asp-Glu-Glu-Asn-Ser-Ala-Lys-Phe-Pro-Ile-NH2 (EIGDEENSAKFPI-NH2) [Peptide 1] | 5.8% | no effect | 53 | 149.4 % of control | 212.4 % of control | 163.3 % of control | 115.8 % of control | 155.5 % of control |  |
| Phe-Arg-Trp-Gly-Lys-Pro-Val-Gly-Lys-Lys-Arg-Arg-Pro-Val-Lys-Val-Tyr-Pro-Asn-Gly-Ala-Glu-Asp-Glu-Ser-Ala-Glu-Ala-Phe-Pro-Leu-Glu-OH (FRWGKPVGKKRRPVKVYPNGAEDESAEAFPLE-OH) [Peptide 2] | does not inhibit | 8.4% | 41 | 113.7 % of control | 137.1 % of control | 0.0 % of control | 106.3 % of control | 138.0 % of control | did not inhibit |
